The assay deals with Sigma non-opioid intracellular receptor 1 (Cavia porcellus) (UniProt Q60492). As to the kind of experiment: Binding affinity was evaluated using [3H]pentazocine binding to sigma-1 receptor from guinea pig brain.
Sequence of Sigma non-opioid intracellular receptor 1 (Cavia porcellus) (Q60492 whole entry, looked up): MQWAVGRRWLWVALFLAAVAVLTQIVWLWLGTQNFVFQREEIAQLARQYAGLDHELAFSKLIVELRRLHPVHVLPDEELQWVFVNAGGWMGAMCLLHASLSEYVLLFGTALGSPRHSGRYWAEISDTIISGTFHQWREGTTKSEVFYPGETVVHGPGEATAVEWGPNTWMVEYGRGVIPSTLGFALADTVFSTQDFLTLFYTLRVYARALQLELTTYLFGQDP

Usually IC50 stands for the concentration needed to halve the response being measured. The low end stands for greater potency in that assay, the high end for weaker potency in that assay. For `C[C@H]1CN(CCCn2c3ccccc3c3ccccc32)C[C@H](C)N1C`, the IC50 worked out at 897 nM. The same measure for `CC1CN(CCCn2c3ccccc3c3ccccc32)CC(C)N1CCCN=C=S` (centres undefined) [9-{3-[4-(3-Isothiocyanato-propyl)-3,5-dimethyl-piperazin-1-yl]-propyl}-9H-carbazole]: 1830 nM; for `CC1CN(CCCn2c3ccccc3c3ccccc32)CC(C)N1CCCCCCN=C=S` (centres undefined) [9-{3-[4-(6-Isothiocyanato-hexyl)-3,5-dimethyl-piperazin-1-yl]-propyl}-9H-carbazole]: 707 nM. In turn, `CC1CN(CCCn2c3ccccc3c3ccccc32)CC(C)N1CCN=C=S` (centres undefined) [9-{3-[4-(2-Isothiocyanato-ethyl)-3,5-dimethyl-piperazin-1-yl]-propyl}-9H-carbazole] showed a half-inhibitory concentration (IC50) of 949 nM.

The record behind these values is BindingDB's records for doi:10.1021/jm9705519 (National Institute On Drug Abuse-Intramural Research Program, 1998).
